Test results as given in PubChem BioAssay AID434987 (Southern Research Specialized Biocontainment Screening …, 2010).
Activity calls are given as the source filed them. No rule for the calls is given here.

System: M. tuberculosis H37Rv growth inhibition with meropenem
Experiment: dose response, H37Rv, with and without meropenem (AID 434987);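 also: growth over 7 days at 37 °C before Alamar Blue read on day 9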
[1] = M. tuberculosis H37Rv growth inhibition, measured here: IC50 without meropenem
[2] = M. tuberculosis H37Rv growth inhibition, measured here: IC90 without meropenem
[3] = measured here: IC90 with meropenem

SMILES	IC50	IC50 [1] [µM]	IC90 [2] [µM]	IC90 [3] [µM]
CC(/C=N/NC(=O)c1cc(-c2cccs2)[nH]n1)=C\c1ccccc1	> 100 µM (inactive)	> 100	> 100	> 100
O=C1OC(/C=C/c2ccccc2)=NC/1=C/c1ccco1	0.691 µM	3.11	13	13.9
CN(C)c1ccc(N=Nc2cccc3ccoc23)cc1	> 100 µM (inactive)	> 100	> 100	> 100
CCN(CC)c1ccc(C=N/C(C#N)=C(\N)C#N)cc1	16.9 µM	> 100	> 100	> 100
O=C(Cn1ncc2c3ccccc3n(Cc3ccccc3F)c2c1=O)NCCCN1CCCC1=O	> 100 µM (inactive)	> 100	> 100	> 100
Cc1cc(C)cc(SCc2noc(C(=O)NC(C)C)c2C(=O)O)c1	25.1 µM (inactive)	45.2	50.7	27.3
CCCOc1ccc(C2Nc3cccc4cccc(c34)N2)cc1	> 100 µM (inactive)	> 100	> 100	> 100
Cc1ccc(C)c(NC(=O)C(Sc2nc3ccccc3c(=O)n2CC(C)C)c2ccccc2)c1 (configuration not stated)	58.8 µM (inactive)	> 100	> 100	> 100
CCOc1ccc(N(CC(=O)NCCSCc2ccccc2Cl)S(C)(=O)=O)cc1	> 100 µM (inactive)	> 100	> 100	> 100
O=C(CSc1nc2ncc(Cl)cc2[nH]1)Nc1cccc(F)c1	> 100 µM (inactive)	> 100	> 100	> 100
CCC(=O)c1ccc(OCc2ccc(C(=O)OC)cc2)c(OC)c1	27.9 µM	> 100	> 100	> 100
O=c1c2cc(Cl)ccc2[nH]c(=S)n1Cc1cccs1	5.72 µM	20.4	> 50	13.2
NC(=S)N/N=C/c1ccc([N+](=O)[O-])cc1	31.7 µM	> 100	> 100	> 100
O=C(Nc1ccc2nc3n(c(=O)c2c1)CCCC3)c1cc([N+](=O)[O-])ccc1F	83.8 µM (inactive)	83.1	90	91
O=C1/C(=C/c2ccncc2)CCc2ccccc21	16.8 µM (inactive)	24.3	36.4	29.1
CC(=O)[C@@]1(O)CC[C@H]2[C@@H]3C[C@H](C)C4=CC(=O)CC[C@]4(C)[C@H]3CC[C@@]21C	> 100 µM (inactive)	> 100	> 100	> 100
COc1ccc(Cn2c(=O)[nH]c3cc(C(=O)N4CCN(c5ccccc5F)CC4)ccc3c2=O)cc1	> 100 µM (inactive)	> 100	> 100	> 100
C/C(=N\NC(=O)c1ccccc1O)c1ccc(Br)s1	> 100 µM (inactive)	> 100	> 100	> 100
O=C(Nc1cccc2ccccc12)N1CCCN(c2c(Cl)cncc2Cl)CC1	> 100 µM (inactive)	> 100	> 100	> 100
CCOc1cc(CNC(C)C)c(Cl)cc1OCC(=O)NCCc1ccccc1	> 100 µM (inactive)	> 100	> 100	> 100

SMILES	IC50	IC50 [1] [µM]	IC90 [2] [µM]	IC90 [3] [µM]
O=C(CCSc1ccc(Cl)c(Cl)c1)NC12CC3CC(CC(C3)C1)C2	11.6 µM	66.3	> 100	12.3
CCCCCn1c(=O)c(C(=O)NCc2ccncc2)c(O)c2ccccc21	35.3 µM (inactive)	81.4	> 100	> 100
CCOc1ccc(-c2nc(-c3ccccc3C)no2)cc1	> 100 µM (inactive)	> 100	> 100	> 100
c1ccc(-c2ccc(C3=Nn4c(Cn5nnc6ccccc65)nnc4SC3)cc2)cc1	53.5 µM (inactive)	84.4	> 100	> 100
COC(=O)c1c(C(=O)OC)c(C)n(Cc2ccco2)c1C	64.4 µM (inactive)	> 100	> 100	> 100
C[C@H]1C=CC(=O)O[C@H]1c1ccccc1	21 µM (inactive)	43.7	60.6	49.5
COc1cc(NC(=O)c2ccccc2)c(OC)cc1NC(=O)CN1CCOCC1	14.5 µM (inactive)	32.1	> 100	69.2
CN(C)CC(=O)Nc1nc(-c2ccccc2)cs1	10.5 µM	83	> 100	> 100
CC[C@@](C)(NS(=O)(=O)OCC(Cl)(Cl)Cl)c1ccccc1	50.1 µM (inactive)	95	> 100	54.8
O=C(NCc1ccc2c(c1)OCO2)C(=O)NC1CCCCC1	> 100 µM (inactive)	> 100	> 100	> 100
Cc1ccc(C(C)C)c(OCc2ccc(C(=O)N/N=C/c3ccc(C(=O)O)cc3)cc2)c1	13.4 µM	43.3	84.9	49.5
COCCSc1nc2sc3c(c2c(=O)n1-c1ccccc1)CCN(C)C3	38.1 µM (inactive)	41.9	54.3	53.3
CCc1ccc2oc(-c3cc(N)cc(C)c3O)nc2c1	76.1 µM (inactive)	93.2	> 100	> 100
CCNCC(O)c1cccc(O)c1 (configuration not stated)	> 100 µM (inactive)	> 100	> 100	> 100
CCCc1cc(C(=O)OCC(=O)N2CCN(c3ccc(OC)cc3)CC2)sc1C	> 100 µM (inactive)	> 100	> 100	> 100
CC(=O)Nc1cccc(-n2nnc(SCC(=O)Nc3ccc(F)c(Cl)c3)n2)c1	> 100 µM (inactive)	> 100	> 100	> 100
COc1ccc(Cl)cc1NC(=O)CN(C)C(=O)c1ccc(N2CCCCCC2)c([N+](=O)[O-])c1	> 100 µM (inactive)	> 100	> 100	> 100
COc1ccc(-c2csc(-c3cccs3)n2)c(OC)c1	67.6 µM (inactive)	68.2	> 100	> 100
O=C(OCC(=O)c1c[nH]c2ccccc12)c1cccc([N+](=O)[O-])c1	> 100 µM (inactive)	> 100	> 100	> 100
CC(C)CC(=O)N1CCN(c2ccc([N+](=O)[O-])c(NCc3ccccc3)c2)CC1	44.9 µM (inactive)	46.7	51.5	48.6

SMILES	IC50	IC50 [1] [µM]	IC90 [2] [µM]	IC90 [3] [µM]
C/C(CC(=O)NCc1ccco1)=N\NC(=O)CC#N	4.68 µM	43.3	> 100	17.6
Nc1c2c(nc3sc4c(c13)CCCC4)-c1ccccc1CC2	6.11 µM	> 100	> 100	> 100
COc1ccc([N+](=O)[O-])cc1NS(=O)(=O)c1ccc(Cl)c(C(=O)Nc2sc3c(c2C#N)CCCCC3)c1	> 100 µM (inactive)	> 100	> 100	> 100
CN(Cc1ccccc1)C(=S)NC(=O)c1ccc(-c2ccccc2)cc1	7.23 µM	24.2	> 100	> 100
COc1ccc2ccccc2c1/C=N/NC(=O)c1cccc(C)c1	64.9 µM (inactive)	> 100	> 100	> 100
CCOc1ccc(NC(=O)/C(C#N)=C/c2cn(CC(=O)O)c3ccccc23)cc1	95.9 µM (inactive)	> 100	> 100	> 100
Cc1ccccc1NC(=O)/C(C#N)=C\c1cc(C)n(-c2ccc(C(=O)O)cc2)c1C	21 µM (inactive)	46.8	76.7	51.1
c1ccc2c(c1)CC1CNCc3cccc(c31)S2 (configuration not stated)	47.4 µM (inactive)	> 100	> 100	> 100
CN(C)C(=O)c1ccc(-n2nc(C(F)(F)F)c3c2CCCC3)cc1	> 100 µM (inactive)	> 100	> 100	> 100
S=C(Nc1ccccc1Cl)N1CCCC(c2ccccc2)=N1	> 100 µM (inactive)	68.9	87.8	> 100
CCOC(=O)/C=c1\s/c(=C\c2c(OC)ccc3ccccc23)c(=O)n1CC(=O)NCC1CCCO1 (configuration not stated)	> 100 µM (inactive)	> 100	> 100	> 100
O=C(NCc1nc2ncc(Br)cc2[nH]1)c1ccccc1	49.2 µM (inactive)	94	> 100	54.9
CCOc1nnnc2c1sc1nc(N3CCOCC3)c3c(c12)CCCC3	> 100 µM (inactive)	> 100	> 100	> 100
O=C(/C=C/c1cc(Br)ccc1F)OCC(=O)N1CCCC1	> 100 µM (inactive)	> 100	> 100	> 100
COCCCn1c(=O)/c(=C\c2ccccc2OC(C)C)s/c1=C(/C#N)C(=O)Nc1ccc(C(=O)O)cc1	5.19 µM	13.6	> 100	18.5
CCCC1=C/C(=C/c2ccc(-c3ccccc3OC)o2)C(=O)O1	29.3 µM (inactive)	55.5	> 100	> 100
C/C(=N\NC(=O)c1cc2c(s1)CCC(C)C2)c1cccnc1 (configuration not stated)	> 100 µM (inactive)	> 100	> 100	> 100
CC(C)(C)c1nc2scc(-c3cccs3)c2c(=O)o1	> 100 µM (inactive)	> 100	> 100	> 100
